Data as given in ChEMBL document CHEMBL3585344, “Thiazole-based aminopyrimidines and N-phenylpyrazolines as potent antimicrobial agents: synthesis and biological evaluation” (2014).
Converted amounts (≈) assume the structure as drawn.

Legend:
[1] = tested on: Talaromyces funiculosus; assay: Antifungal activity against Penicillium funiculosum ATCC 36839 after 72 hrs by microdilution method; type: functional; settings: ATCC 36839, 72 h
[2] = tested on: Staphylococcus aureus; assay: Bactericidal activity against Staphylococcus aureus ATCC 6538 after 72 hrs by microdilution method; type: functional
[3] = tested on: Listeria monocytogenes; assay: Antibacterial activity against Listeria monocytogenes NCTC 7973 after 24 hrs by microdilution method; type: functional; settings: NCTC 7973, 24 h
[4] = tested on: Aspergillus fumigatus; assay: Antifungal activity against Aspergillus fumigatus isolated from human after 72 hrs by microdilution method; type: functional
[5] = tested on: Penicillium ochrochloron; assay: Antifungal activity against Penicillium ochrochloron ATCC 9112 after 72 hrs by microdilution method; type: functional; settings: ATCC 9112, 72 h
[6] = tested on: Salmonella typhimurium; assay: Bactericidal activity against Salmonella typhimurium ATCC 13311 after 72 hrs by microdilution method; type: functional, Salmonella enterica subsp. enterica serovar Typhimurium
[7] = tested on: Aspergillus ochraceus; assay: Antifungal activity against Aspergillus ochraceus ATCC 12066 after 72 hrs by microdilution method; type: functional; settings: ATCC 12066, 72 h
[8] = tested on: Aspergillus flavus; assay: Antifungal activity against Aspergillus flavus ATCC 9643 after 72 hrs by microdilution method; type: functional; settings: ATCC 9643, 72 h
[9] = tested on: Escherichia coli; assay: Bactericidal activity against Escherichia coli ATCC 35210 after 72 hrs by microdilution method; type: functional
[10] = tested on: Escherichia coli; assay: Antibacterial activity against Escherichia coli ATCC 35210 after 24 hrs by microdilution method; type: functional; settings: ATCC 35210, 24 h
[11] = tested on: Aspergillus versicolor; assay: Antifungal activity against Aspergillus versicolor ATCC 11730 after 72 hrs by microdilution method; type: functional; settings: ATCC 11730, 72 h
[12] = tested on: Aspergillus fumigatus; assay: Fungicidal activity against Aspergillus fumigatus isolated from human after 72 hrs by microdilution method; type: functional
[13] = tested on: Talaromyces funiculosus; assay: Fungicidal activity against Penicillium funiculosum ATCC 36839 after 72 hrs by microdilution method; type: functional
[14] = tested on: Bacillus cereus; assay: Antibacterial activity against Bacillus cereus clinical isolate after 24 hrs by microdilution method; type: functional
[15] = tested on: Aspergillus versicolor; assay: Fungicidal activity against Aspergillus versicolor ATCC 11730 after 72 hrs by microdilution method; type: functional
[16] = tested on: Salmonella typhimurium; assay: Antibacterial activity against Salmonella typhimurium ATCC 13311 after 24 hrs by microdilution method; type: functional, Salmonella enterica subsp. enterica serovar Typhimurium; settings: Salmonella enterica, ATCC 13311, 24 h
[17] = tested on: Enterococcus faecalis; assay: Bactericidal activity against Enterococcus faecalis ATCC 7080 isolated from human after 72 hrs by microdilution method; type: functional
[18] = tested on: Aspergillus flavus; assay: Fungicidal activity against Aspergillus flavus ATCC 9643 after 72 hrs by microdilution method; type: functional
[19] = tested on: Pseudomonas aeruginosa; assay: Bactericidal activity against Pseudomonas aeruginosa ATCC 27853 after 72 hrs by microdilution method; type: functional
[20] = tested on: Staphylococcus aureus; assay: Antibacterial activity against Staphylococcus aureus ATCC 6538 after 24 hrs by microdilution method; type: functional; settings: ATCC 6538, 24 h
[21] = tested on: Aspergillus niger; assay: Antifungal activity against Aspergillus niger ATCC 6275 after 72 hrs by microdilution method; type: functional; settings: ATCC 6275, 72 h
[22] = tested on: Aspergillus niger; assay: Fungicidal activity against Aspergillus niger ATCC 6275 after 72 hrs by microdilution method; type: functional
[23] = tested on: Trichoderma viride; assay: Antifungal activity against Trichoderma viride IAM 5061 after 72 hrs by microdilution method; type: functional; settings: IAM 5061, 72 h
[24] = tested on: Listeria monocytogenes; assay: Bactericidal activity against Listeria monocytogenes NCTC 7973 after 72 hrs by microdilution method; type: functional
[25] = tested on: Micrococcus flavus; assay: Bactericidal activity against Micrococcus flavus ATCC 10240 after 72 hrs by microdilution method; type: functional
[26] = tested on: Aspergillus ochraceus; assay: Fungicidal activity against Aspergillus ochraceus ATCC 12066 after 72 hrs by microdilution method; type: functional
[27] = tested on: Bacillus cereus; assay: Bactericidal activity against Bacillus cereus clinical isolate after 72 hrs by microdilution method; type: functional
[28] = tested on: Penicillium ochrochloron; assay: Fungicidal activity against Penicillium ochrochloron ATCC 9112 after 72 hrs by microdilution method; type: functional
[29] = tested on: Trichoderma viride; assay: Fungicidal activity against Trichoderma viride IAM 5061 after 72 hrs by microdilution method; type: functional
[30] = tested on: Micrococcus flavus; assay: Antibacterial activity against Micrococcus flavus ATCC 10240 after 24 hrs by microdilution method; type: functional; settings: ATCC 10240, 24 h
[31] = tested on: Enterococcus faecalis; assay: Antibacterial activity against Enterococcus faecalis ATCC 7080 isolated from human after 24 hrs by microdilution method; type: functional; settings: ATCC 7080, 24 h
[32] = tested on: Pseudomonas aeruginosa; assay: Antibacterial activity against Pseudomonas aeruginosa ATCC 27853 after 24 hrs by microdilution method; type: functional; settings: ATCC 27853, 24 h

Row | SMILES | MIC [1] [µM] | MBC99.5 [2] [×10⁻² umol/ml] | MIC [3] [µM] | MIC [4] [µM] | MIC [5] [µM] | MBC99.5 [6] [×10⁻² umol/ml] | MIC [7] [µM] | MIC [8] [µM] | MBC99.5 [9] [×10⁻² umol/ml] | MIC [10] [µM] | MIC [11] [µM] | MFC99.5 [12] [×10⁻² umol/ml] | MFC99.5 [13] [×10⁻² umol/ml] | MIC [14] [µM] | MFC99.5 [15] [×10⁻² umol/ml] | MIC [16] [µM] | MBC99.5 [17] [×10⁻² umol/ml] | MFC99.5 [18] [×10⁻² umol/ml] | MBC99.5 [19] [×10⁻² umol/ml] | MIC [20] [µM] | further results
1 | Cc1nc(-c2ccccc2)sc1-c1cc(-c2ccccc2)nc(N)n1 | 348 (≈ 120 µg/mL) | 5.8 | 14.5 (≈ 4.99 µg/mL) | 58 (≈ 20 µg/mL) | 348 (≈ 120 µg/mL) | 34.8 | 14.5 (≈ 4.99 µg/mL) | 58 (≈ 20 µg/mL) | 40.6 | 348 (≈ 120 µg/mL) | 14.5 (≈ 4.99 µg/mL) | 34.8 | 34.8 | 58 (≈ 20 µg/mL) | 9 | 290 (≈ 99.9 µg/mL) | 34.8 | 29 | 40.6 | 14.5 (≈ 4.99 µg/mL) | MIC [21]: 58 µM (≈ 20 µg/mL); MFC99.5 [22]: 40.6 ×10⁻² umol/ml; MIC [23]: 14.5 µM (≈ 4.99 µg/mL); MBC99.5 [24]: 36.25 ×10⁻² umol/ml; MBC99.5 [25]: 29 ×10⁻² umol/ml; MFC99.5 [26]: 5.8 ×10⁻² umol/ml; MBC99.5 [27]: 40.6 ×10⁻² umol/ml; MFC99.5 [28]: 40.6 ×10⁻² umol/ml; MFC99.5 [29]: 29 ×10⁻² umol/ml; MIC [30]: 58 µM (≈ 20 µg/mL); MIC [31]: 290 µM (≈ 99.9 µg/mL); MIC [32]: 290 µM (≈ 99.9 µg/mL)
2 | CCNc1nc(C)c(C2=NN(c3ccccc3)C(c3ccccc3)C2)s1 (stereo unspecified) | 110 (≈ 40 µg/mL) | 27.6 | 55.2 (≈ 20 µg/mL) | 110 (≈ 40 µg/mL) | 309 (≈ 112 µg/mL) | 30.9 | 27.6 (≈ 10 µg/mL) | 110 (≈ 40 µg/mL) | 44.16 | 276 (≈ 100 µg/mL) | 55.2 (≈ 20 µg/mL) | 44.16 | 30.9 | 55.2 (≈ 20 µg/mL) | 27.6 | 276 (≈ 100 µg/mL) | 27.6 | 27.6 | 44.16 | 27.6 (≈ 10 µg/mL) | MIC [21]: 309 µM (≈ 112 µg/mL); MFC99.5 [22]: 44.16 ×10⁻² umol/ml; MIC [23]: 276 µM (≈ 100 µg/mL); MBC99.5 [24]: 11.04 ×10⁻² umol/ml; MBC99.5 [25]: 44.16 ×10⁻² umol/ml; MFC99.5 [26]: 11.04 ×10⁻² umol/ml; MBC99.5 [27]: 27.6 ×10⁻² umol/ml; MFC99.5 [28]: 44.16 ×10⁻² umol/ml; MFC99.5 [29]: 30.9 ×10⁻² umol/ml; MIC [30]: 110 µM (≈ 40 µg/mL); MIC [31]: 110 µM (≈ 40 µg/mL); MIC [32]: 276 µM (≈ 100 µg/mL)
3 | CNc1nc(C)c(C2=NN(c3ccccc3)C(c3ccc(C)cc3)C2)s1 (stereo unspecified) | 276 (≈ 100 µg/mL) | 27.6 | 96 (≈ 34.8 µg/mL) | 276 (≈ 100 µg/mL) | 276 (≈ 100 µg/mL) | 27.6 | 96 (≈ 34.8 µg/mL) | 110 (≈ 40 µg/mL) | 58.6 | 276 (≈ 100 µg/mL) | 55.2 (≈ 20 µg/mL) | 44.16 | 44.16 | 55.2 (≈ 20 µg/mL) | 27.6 | 110 (≈ 40 µg/mL) | 58.64 | 27.6 | 33.12 | 110 (≈ 40 µg/mL) | MIC [21]: 442 µM (≈ 160 µg/mL); MFC99.5 [22]: 58.6 ×10⁻² umol/ml; MIC [23]: 55.2 µM (≈ 20 µg/mL); MBC99.5 [24]: 11.04 ×10⁻² umol/ml; MBC99.5 [25]: 58.6 ×10⁻² umol/ml; MFC99.5 [26]: 11.04 ×10⁻² umol/ml; MBC99.5 [27]: 27.6 ×10⁻² umol/ml; MFC99.5 [28]: 44.6 ×10⁻² umol/ml; MFC99.5 [29]: 11.04 ×10⁻² umol/ml; MIC [30]: 276 µM (≈ 100 µg/mL); MIC [31]: 442 µM (≈ 160 µg/mL); MIC [32]: 276 µM (≈ 100 µg/mL)
